Assay results reported in patent US20170022171A1, “2,5-DISUBSTITUTED CYCLOPENTANECARBOXYLIC ACIDS AND THEIR USE” (Bayer Pharma Aktiengesellschaft, priority 2014, published 2017).

Legend:
Type in all cases: biochemical
MMP-16 = biological target: T1, MMP-16 (Homo sapiens, UniProt P51512); assay: In vitro MMP-16 inhibition test
T1 construct: purchased R&D Systems 1785-MP
Source text: (§1) The MMP-mediated amidolytic cleavage of a suitable peptide substrate leads to an increase in fluorescent light here too. The signal intensity of the fluorescent light is directly proportional to the enzyme activity. The active concentration of a test compound at which half the enzyme is inhibited (50% signal intensity of the fluorescent light) is reported as the IC50 value.
Recombinant MMP-16 (from R&D Systems, 1785-MP) is enzymatically activated in accordance with the manufacturer's instructions using recombinant furin (from R&D Systems, 1503-SE). 1 μl of the test compound to be analysed (as a solution in DMSO, suitable concentrations e.g. 1 nM to 30 μM) is pipetted into 24 μl of activated enzyme (final concentration e.g. 1 nM) in reaction buffer (50 mM Tris/HCl pH 7.5, 10 mM CaCl2, 150 mM NaCl, 0.05% Brij®-35) in a white 384-hole microtiter plate (MTP). The enzymatic reaction is started by adding the intramolecularly quenched Mca-Lys-Pro-Leu-Gly-Leu-Dpa(Dnp)-Ala-Arg-NH2 substrate (final concentration, for example, 5 μM; R&D Systems, ES-010), so as to result in a total test volume of 50 The course of the MMP-16 reaction is measured by measuring the fluorescence intensity (excitation 320 nm, emission 410 nm) over a suitable period of time (for example over 120 min at a temperature of 32° C.).

MMP-13 = biological target: T2, MMP-13 (Homo sapiens, UniProt P45452); assay: In vitro MMP-13 inhibition test
T2 construct: purchased R&D Systems 511-MP
Source text: as §1
(§2) Recombinant MMP-13 (from R&D Systems, 511-MP) is chemically activated in accordance with the manufacturer's instructions using APMA. 1 μl of the test compound to be analysed (as a solution in DMSO, suitable concentrations, for example, 1 nM to 30 μM) is pipetted into 24 μl of activated enzyme (final concentration, for example, 0.1 nM) in reaction buffer (50 mM Tris/HCl pH 7.5, 10 mM CaCl2, 150 mM NaCl, 0.05% Brij®-35) in a white 384-hole microtiter plate (MTP). The enzymatic reaction is started by adding the intramolecularly quenched Mca-Pro-Leu-Gly-Leu-Dpa(Dnp)-Ala-Arg-NH2 substrate (final concentration, for example, 10 μM; R&D Systems, ES-001), so as to result in a total test volume of 50 The course of the MMP-13 reaction is measured by measuring the fluorescence intensity (excitation 320 nm, emission 410 nm) over a suitable period of time (for example over 120 min at a temperature of 32° C.).

MMP-3 = biological target: T3, MMP-3 (Homo sapiens, UniProt P08254); assay: In vitro MMP-3 inhibition test
T3 construct: purchased R&D Systems 513-MP
T3 sequence (P08254 100-477): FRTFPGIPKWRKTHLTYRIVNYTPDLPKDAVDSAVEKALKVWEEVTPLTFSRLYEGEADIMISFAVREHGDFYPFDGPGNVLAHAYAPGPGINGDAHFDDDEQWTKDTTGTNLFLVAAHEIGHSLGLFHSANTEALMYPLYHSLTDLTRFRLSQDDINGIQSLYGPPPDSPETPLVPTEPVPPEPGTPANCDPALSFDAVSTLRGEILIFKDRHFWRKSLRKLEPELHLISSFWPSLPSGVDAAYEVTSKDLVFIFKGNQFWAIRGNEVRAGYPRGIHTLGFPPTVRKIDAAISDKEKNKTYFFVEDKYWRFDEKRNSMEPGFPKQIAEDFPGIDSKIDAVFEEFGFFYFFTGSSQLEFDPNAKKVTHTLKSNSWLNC
Source text: as §1
as §2, with “MMP-3” for “MMP-13”, “513-MP)” for “511-MP)”, “2” for “0.1”, “Mca-Arg-Pro-Lys-Pro-Val-Glu-Nval-Trp-Arg-Lys(Dnp)-NH2” for “Mca-Pro-Leu-Gly-Leu-Dpa(Dnp)-Ala-Arg-NH2”, “ES-002),” for “ES-001),”

MMP-14 = biological target: T4, MMP-14 (Homo sapiens, UniProt P50281); assay: In vitro MMP-14 inhibition test
T4 construct: purchased R&D Systems 918-MP
Source text: as §1
Recombinant MMP-14 (from R&D Systems, 918-MP) is enzymatically activated in accordance with the manufacturer's instructions using recombinant furin (from R&D Systems, 1503-SE). 1 μl of the test compound to be analysed (as a solution in DMSO, suitable concentrations e.g. 1 nM to 30 μM) is pipetted into 24 μl of activated enzyme (final concentration e.g. 0.5 nM) in reaction buffer (50 mM Tris/HCl pH 7.5, 10 mM CaCl2, 150 mM NaCl, 0.05% Brij®-35) in a white 384-hole microtiter plate (MTP). The enzymatic reaction is started by adding the intramolecularly quenched Mca-Lys-Pro-Leu-Gly-Leu-Dpa(Dnp)-Ala-Arg-NH2 substrate (final concentration, for example, 5 μM; R&D Systems, ES-010), so as to result in a total test volume of 50 The course of the MMP-14 reaction is measured by measuring the fluorescence intensity (excitation 320 nm, emission 410 nm) over a suitable period of time (for example over 120 min at a temperature of 32° C.).

MMP-8 = biological target: T5, MMP-8 (Homo sapiens, UniProt P22894); assay: In vitro MMP-8 inhibition test
T5 construct: purchased R&D Systems 908-MP
T5 sequence (P22894 101-467): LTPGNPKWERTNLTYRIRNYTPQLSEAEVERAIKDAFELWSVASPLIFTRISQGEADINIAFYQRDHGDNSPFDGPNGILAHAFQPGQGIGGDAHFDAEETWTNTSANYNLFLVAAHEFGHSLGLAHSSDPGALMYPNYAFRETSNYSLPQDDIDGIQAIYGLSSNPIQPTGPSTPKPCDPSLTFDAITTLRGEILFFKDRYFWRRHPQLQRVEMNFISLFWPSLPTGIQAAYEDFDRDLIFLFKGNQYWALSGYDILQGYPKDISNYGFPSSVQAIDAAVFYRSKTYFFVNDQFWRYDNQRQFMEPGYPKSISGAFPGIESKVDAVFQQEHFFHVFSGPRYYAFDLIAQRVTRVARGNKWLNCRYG
Source text: as §1
Recombinant MMP-8 (from R&D Systems, 908-MP) is chemically activated in accordance with the manufacturer's instructions using APMA. 1 μl of the test compound to be analysed (as a solution in DMSO, suitable concentrations, for example, 1 nM to 30 μM) is pipetted into 24 μl of activated enzyme (final concentration, for example, 0.5 nM) in reaction buffer (50 mM Tris/HCl pH 7.5, 10 mM CaCl2, 150 mM NaCl, 0.05% Brij®-35) in a white 384-hole microtiter plate (MTP). The enzymatic reaction is started by adding the intramolecularly quenched Mca-Pro-Leu-Gly-Leu-Dpa(Dnp)-Ala-Arg-NH2 substrate (final concentration, for example, 10 μM; R&D Systems, ES-001), so as to result in a total test volume of 50 μl. The course of the MMP-8 reaction is measured by measuring the fluorescence intensity (excitation 320 nm, emission 410 nm) over a suitable period of time (for example over 120 min at a temperature of 32° C.).

T1 sequence (P51512 120-564 limits assumed): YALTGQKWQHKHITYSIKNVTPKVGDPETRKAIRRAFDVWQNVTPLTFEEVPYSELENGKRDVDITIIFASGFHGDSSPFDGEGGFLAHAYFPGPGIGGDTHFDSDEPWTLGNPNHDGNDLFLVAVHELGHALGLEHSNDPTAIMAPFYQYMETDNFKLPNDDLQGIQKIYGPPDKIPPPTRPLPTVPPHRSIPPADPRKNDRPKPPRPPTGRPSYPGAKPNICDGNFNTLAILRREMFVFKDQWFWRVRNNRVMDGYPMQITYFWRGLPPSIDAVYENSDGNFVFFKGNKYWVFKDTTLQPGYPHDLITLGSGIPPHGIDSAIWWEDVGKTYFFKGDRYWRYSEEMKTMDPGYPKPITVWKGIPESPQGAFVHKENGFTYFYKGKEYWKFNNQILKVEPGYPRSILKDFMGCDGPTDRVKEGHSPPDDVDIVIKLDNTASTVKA

| SMILES | IC50 (MMP-16) [nM] | IC50 (MMP-13) [nM] | IC50 (MMP-3) [nM] | IC50 (MMP-14) [nM] | IC50 (MMP-8) [nM] |
| --- | --- | --- | --- | --- | --- |
| O=C(O)[C@@H]1[C@@H](Cn2nnc3ccc(C(F)(F)F)cc3c2=O)CC[C@H]1C(=O)c1ccc(OCc2cccc(C(F)(F)F)c2)cc1 (single isomer, unassigned) [Example 19, (+)-(1RS,2SR,5RS)-2-{[4-Oxo-6-(trifluoromethyl)-1,2,3-benzotriazin-3(4H)-yl]methyl}-5-(4-{[3-(trifluoromethyl)benzyl]oxy}benzoyl)cyclopentanecarboxylic acid] | 5400 | 2600 | 3000 | 3000 | 130 |
| O=C(O)[C@@H]1[C@@H](Cn2nnc3ccc(C(F)(F)F)cc3c2=O)CC[C@H]1C(=O)c1ccc(OCc2cccc(Cl)c2)cc1 (single isomer, unassigned) [Example 23, (+)-(1RS,2RS,5SR)-2-{4-[(3-Chlorobenzyl)oxy]benzoyl}-5-{[4-oxo-6-(trifluoromethyl)-1,2,3-benzotriazin-3(4H)-yl]methyl}cyclopentanecarboxylic acid] | 2200 | 1500 | 540 | 1200 | 56 |
| O=C(O)[C@@H]1[C@@H](Cn2nnc3ccc(C(F)(F)F)cc3c2=O)CC[C@H]1C(=O)c1ccc(OCc2ccc(Cl)cc2)cc1 (single isomer, unassigned) [Example 25, (+)-(1RS,2RS,5SR)-2-{4-[(4-Chlorobenzyl)oxy]benzoyl}-5-{[4-oxo-6-(trifluoromethyl)-1,2,3-benzotriazin-3(4H)-yl]methyl}cyclopentanecarboxylic acid] | 290 | 45 | 63 | 230 | 0.79 |
| O=C(O)[C@@H]1[C@@H](Cn2nnc3ccc(C(F)(F)F)cc3c2=O)CC[C@H]1C(=O)c1ccc(OCc2cccc(N3CCOC3=O)c2)cc1 (single isomer, unassigned) [Example 35, (+)-(1RS,2RS,5SR)-2-(4-{[3-(2-Oxo-1,3-oxazolidin-3-yl)benzyl]oxy}benzoyl)-5-{[4-oxo-6-(trifluoromethyl)-1,2,3-benzotriazin-3(4H)-yl]methyl}cyclopentanecarboxylic acid] | 300 | 53 | 400 | 170 | 2 |
| O=C(O)[C@@H]1[C@@H](Cn2nnc3ccc(C(F)(F)F)cc3c2=O)CC[C@H]1C(=O)c1ccc(OCC2CCCCC2)cc1 (single isomer, unassigned) [Example 41, (+)-(1RS,2RS,5SR)-2-[4-(Cyclohexylmethoxy)benzoyl]-5-{[4-oxo-6-(trifluoromethyl)-1,2,3-benzotriazin-3(4H)-yl]methyl}cyclopentanecarboxylic acid] | 270 | 110 | 41 | 110 | 1.6 |
| O=C(O)[C@@H]1[C@@H](Cn2nnc3ccc(C(F)(F)F)cc3c2=O)CC[C@H]1C(=O)c1ccc(OCC2CCCC2)cc1 (single isomer, unassigned) [Example 44, (+)-(1RS,2RS,5SR)-2-[4-(Cyclopentylmethoxy)benzoyl]-5-{[4-oxo-6-(trifluoromethyl)-1,2,3-benzotriazin-3(4H)-yl]methyl}cyclopentanecarboxylic acid] | 100 | 58 | 140 | 88 | 1.1 |
| O=C(O)[C@@H]1[C@@H](Cn2nnc3ccc(C(F)(F)F)cc3c2=O)CC[C@H]1C(=O)c1ccc(OCCC2CCCCC2)cc1 (single isomer, unassigned) [Example 52, (+)-(1RS,2RS,5SR)-2-[4-(2-Cyclohexylethoxy)benzoyl]-5-{[4-oxo-6-(trifluoromethyl)-1,2,3-benzotriazin-3(4H)-yl]methyl}cyclopentanecarboxylic acid] | 4600 | 1600 | 380 | 3600 | 38 |
| O=C(O)[C@@H]1[C@@H](Cn2nnc3ccc(C(F)(F)F)cc3c2=O)CC[C@H]1C(=O)c1ccc(OCCC2CCCC2)cc1 (single isomer, unassigned) [Example 55, (+)-(1RS,2RS,5SR)-2-[4-(2-Cyclopentylethoxy)benzoyl]-5-{[4-oxo-6-(trifluoromethyl)-1,2,3-benzotriazin-3(4H)-yl]methyl}cyclopentanecarboxylic acid] | 5100 | 1700 | 440 | 2400 | 30 |
| CCCCCCOc1ccc(C(=O)[C@@H]2CC[C@H](Cn3nnc4ccc(C(F)(F)F)cc4c3=O)[C@H]2C(=O)O)cc1 (single isomer, unassigned) [Example 58, (+)-(1RS,2RS,5SR)-2-[4-(Hexyloxy)benzoyl]-5-{[4-oxo-6-(trifluoromethyl)-1,2,3-benzotriazin-3(4H)-yl]methyl}cyclopentanecarboxylic acid] | 2300 | 440 | 300 | 1300 | 16 |
| CCCCOc1ccc(C(=O)[C@@H]2CC[C@H](Cn3nnc4ccc(C(F)(F)F)cc4c3=O)[C@H]2C(=O)O)cc1 (single isomer, unassigned) [Example 67, (+)-(1RS,2RS,5SR)-2-(4-Butoxybenzoyl)-5-{[4-oxo-6-(trifluoromethyl)-1,2,3-benzotriazin-3(4H)-yl]methyl}cyclopentanecarboxylic acid] | 180 | 270 | 140 | 96 | 1.6 |
| O=C(O)[C@@H]1[C@@H](Cn2nnc3ccc(C(F)(F)F)cc3c2=O)CC[C@H]1C(=O)c1ccc(SCc2ccccc2)cc1 (single isomer, unassigned) [Example 75, (+)-(1RS,2RS,5SR)-2-[4-(Benzylsulphanyl)benzoyl]-5-{[4-oxo-6-(trifluoromethyl)-1,2,3-benzotriazin-3(4H)-yl]methyl}cyclopentanecarboxylic acid] | 3600 | 2300 | 170 | 1900 | 74 |
